Values after ≈ are worked out from the molar mass of the structure shown. Read-outs that look alike come from different tables or passages of the source.
Experiments:
[1] = biological target: AAC(2’)-Ic (Mycobacterium tuberculosis, UniProt P9WQG9); test: Inhibitor selectivity, NEO acetylation assay; assay type: biochemical; settings: concentrations up to 200 μM
[2] = biological target: T1, Mtb Eis (Mycobacterium tuberculosis, UniProt P9WFK7); assay type: biochemical; settings: for mode of inhibition with respect to KAN: Michaelis-Menten analysis of KAN acetylation by Eis
T1 sequence (P9WFK7 whole entry): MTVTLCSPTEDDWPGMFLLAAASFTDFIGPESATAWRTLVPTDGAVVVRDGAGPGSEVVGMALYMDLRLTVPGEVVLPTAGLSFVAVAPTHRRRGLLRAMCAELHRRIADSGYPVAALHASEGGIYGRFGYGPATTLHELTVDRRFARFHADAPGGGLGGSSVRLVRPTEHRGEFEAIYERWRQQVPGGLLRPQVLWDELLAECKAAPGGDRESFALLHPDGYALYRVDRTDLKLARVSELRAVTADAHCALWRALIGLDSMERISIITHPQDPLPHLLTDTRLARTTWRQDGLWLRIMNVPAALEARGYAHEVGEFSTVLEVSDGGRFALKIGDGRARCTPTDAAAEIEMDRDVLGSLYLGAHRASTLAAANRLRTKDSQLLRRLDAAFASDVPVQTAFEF

[3] = biological target: T1, Mtb Eis; test: Eis acetylation assay; assay type: biochemical
[4] = system: Mtb mc^26230; test: MIC determination of compounds alone; assay type: cell-based, Mycobacterium tuberculosis; settings: for MIC: Mycobacterium tuberculosis, read-out: MIC mc^26230; for MIC mc^26230: compound alone, duplicate
[5] = biological target: AAC(6’)-Ie/APH(2”)-Ia (Staphylococcus aureus, UniProt P0A0C1); test: Inhibitor selectivity, NEO acetylation assay; assay type: biochemical; settings: concentrations up to 200 μM
Chain of AAC(6’)-Ie/APH(2”)-Ia (P0A0C1 whole entry): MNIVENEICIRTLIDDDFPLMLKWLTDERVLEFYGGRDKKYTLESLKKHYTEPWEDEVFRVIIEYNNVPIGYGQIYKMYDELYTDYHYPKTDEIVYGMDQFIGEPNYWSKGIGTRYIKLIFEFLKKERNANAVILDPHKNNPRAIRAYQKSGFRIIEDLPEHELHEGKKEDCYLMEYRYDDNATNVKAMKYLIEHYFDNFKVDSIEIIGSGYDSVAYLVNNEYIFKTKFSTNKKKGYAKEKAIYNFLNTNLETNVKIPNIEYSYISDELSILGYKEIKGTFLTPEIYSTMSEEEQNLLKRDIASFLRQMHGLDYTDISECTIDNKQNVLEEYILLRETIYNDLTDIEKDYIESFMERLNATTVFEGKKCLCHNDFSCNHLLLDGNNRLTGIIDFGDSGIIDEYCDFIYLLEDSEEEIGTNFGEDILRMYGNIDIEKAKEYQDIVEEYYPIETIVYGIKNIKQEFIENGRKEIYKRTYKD

[6] = biological target: AAC(3)-IV (Salmonella sp, UniProt P08988); assay type: biochemical; settings: concentrations up to 200 μM
Chain of AAC(3)-IV (P08988 whole entry): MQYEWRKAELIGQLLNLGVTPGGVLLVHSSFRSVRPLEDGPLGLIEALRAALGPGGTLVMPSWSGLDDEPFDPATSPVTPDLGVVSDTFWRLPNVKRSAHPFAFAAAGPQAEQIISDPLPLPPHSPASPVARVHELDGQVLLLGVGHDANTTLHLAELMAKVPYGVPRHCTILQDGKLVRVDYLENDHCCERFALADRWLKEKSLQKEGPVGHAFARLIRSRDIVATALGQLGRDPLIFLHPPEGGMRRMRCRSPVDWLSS

[7] = biological target: T1, Mtb Eis; test: Screening acetylation assay with NEO as substrate; assay type: biochemical; settings: conditions of the original high-throughput assay; compound 20 μM, NEO 100 μM
[8] = with respect to KAN, global nonlinear regression fit
[9] = Eis 0.25 μM, KAN 100 μM, AcCoA 0.5 mM, Tris-HCl pH 8.0, triplicate

Chain of AAC(2’)-Ic (P9WQG9 whole entry): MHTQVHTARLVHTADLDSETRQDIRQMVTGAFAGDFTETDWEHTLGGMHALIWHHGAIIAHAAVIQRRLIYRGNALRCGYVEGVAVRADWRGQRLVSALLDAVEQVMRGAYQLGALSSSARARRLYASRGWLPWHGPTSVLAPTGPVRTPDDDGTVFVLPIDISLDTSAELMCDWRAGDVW

| SMILES | inhibition of NEO acetylation by AAC(2’)-Ic [1] | Ki [2] | mode of inhibition with respect to KAN [2] | Ki,u (equilibrium constant for inhibitor binding to enzyme-substrate complex) [2, 8] | IC50 [3] | MIC [4] | inhibition of NEO acetylation by AAC(6’)-Ie [5] | inhibition of NEO acetylation by AAC(3)-IV [6] | MIC mc^26230 [4] | further results |
| --- | --- | --- | --- | --- | --- | --- | --- | --- | --- | --- |
| CN1CCCC(n2nc(Cc3ccc(Cl)cc3)c3ccccc3c2=O)CC1 (stereo not shown) [Azelastine (AZL), Azelastine] | not inhibited | 0.24 ± 0.05 µM | competitive | 0.9 ± 0.5 (p = 0.08) μM | 0.79 ± 0.08 µM | 32 µM (≈ 12.2 µg/mL) | not inhibited | not inhibited | – | – |
| [H]/N=C(\N/C(=N/[H])NCCCCCCNC(=N)NC(=N)Nc1ccc(Cl)cc1)Nc1ccc(Cl)cc1 [Chlorhexidine (CHX), Chlorhexidine] | – | – | – | – | – | ≤ 0.03 µM | – | – | – | – |
| CCN(CC)CCCC(C)Nc1ccnc2cc(Cl)ccc12 (stereo not shown) [Chloroquine (CHQ), Chloroquine] | not inhibited | 12.3 ± 2.7 µM | competitive | 35 ± 20 (p = 0.1) μM | 20 ± 2 µM | 64 µM (≈ 20.5 µg/mL) | not inhibited | not inhibited | – | – |
| NC(N)=NN=Cc1ccc(Cl)cc1 [Compound 1] | – | – | competitive inhibition | – | – | – | – | – | > 64 µM | Ki ([2]; read-out: Ki (equilibrium constant for inhibitor binding to free enzyme), with respect to KAN, global nonlinear regression fit): 17 ± 2.4 µM; IC50 [3, 9]: 10 ± 3 µM; fold more potent than PRO as an Eis inhibitor ([3]; ratio of IC50 values vs PRO): 3 fold |
| Fc1cccc(NN=Cc2ccc(Cl)cc2)c1 [Compound 2] | – | – | uncompetitive inhibition | 104 ± 8 µM | – | – | – | – | > 64 µM | IC50 [3, 9]: 160 ± 49 µM; IC50 fold higher than that of PRO ([3]; ratio of IC50 values vs PRO): 5 fold |
| Fc1ccc(NN=Cc2ccc(Cl)cc2)cc1 [Compound 3] | – | – | – | – | – | – | – | – | > 64 µM | IC50 [3, 9]: > 200 µM; IC50 fold higher than that of PRO ([3]; ratio of IC50 values vs PRO): > 7 fold |
| NNC(=O)c1ccncc1 [Isoniazid (INH), Isoniazid] | – | – | – | – | – | ≤ 3.6 µM | – | – | – | – |
| NC[C@H]1O[C@H](O[C@H]2[C@H](O)[C@@H](O[C@H]3O[C@H](CO)[C@@H](O)[C@H](N)[C@H]3O)[C@H](N)C[C@@H]2N)[C@H](O)[C@@H](O)[C@@H]1O [Kanamycin (KAN), Kanamycin] | – | – | – | – | – | – | – | – | 0.17 µM (≈ 0.0824 µg/mL) | – |
| OC(c1cc(C(F)(F)F)nc2c(C(F)(F)F)cccc12)C1CCCCN1 (stereo not shown) [Mefloquine (MEF), Mefloquine] | not inhibited | 7.2 ± 1.1 µM | – | 5.9 ± 1.3 (p = 0.0002) μM | 4.2 ± 0.8 µM | 16 µM (≈ 6.05 µg/mL) | not inhibited | not inhibited | – | – |
| [H]/N=C(\N/C(=N/[H])Nc1ccc(Cl)cc1)NC(C)C [Proguanil (PRO), Proguanil] | not inhibited | 28 ± 10 µM | – | – | 30 ± 7 µM | > 64 µM | not inhibited | not inhibited | – | inhibition of NEO acetylation activity of Mtb Eis [7]: detectable inhibition |
| COc1ccc(C(CN(C)C)C2(O)CCCCC2)cc1 (stereo not shown) [Venlafaxine (VEN), Venlafaxine] | – | – | – | – | 134 ± 21 µM | > 64 µM | – | – | – | inhibition of NEO acetylation activity of Mtb Eis [7]: detectable inhibition |

From PMC9905294 (Biochemistry, 2023)
